# ChEMBL document CHEMBL4354856, “Discovery of 4,6-O-Thenylidene-β-d-glucopyranoside-(2″-acetamido, 3″-acetyl-di-S-5-fluorobenzothizole/5-fluorobenzoxazole)-4'-demethylepipodophyllotoxin as Potential Less Toxic Antitumor Candidate Drugs by Reducing DNA Damage and Less Inhibition of PI3K” (J Med Chem, 2020)
# Active and inactive are the calls of the source. The rule behind the calls is not given here.
# Tests used:
# HMEC [1] = test: Cytotoxicity against human HMEC cells assessed as inhibition of cell proliferation measured after 48 hrs by MTT assay; assay type: cell-based
# MCF7 = test: Anticancer activity against human MCF7 cells assessed as inhibition of cell proliferation measured after 48 hrs by MTT assay; assay type: functional, cell-based; conditions: MCF7, 48 h
# MRC5 [2] = test: Cytotoxicity against human MRC5 cells assessed as inhibition of cell proliferation measured after 48 hrs by MTT assay; assay type: cell-based; conditions: MRC5, 48 h
# L02 [3] = test: Cytotoxicity against human HL7702 cells assessed as inhibition of cell proliferation measured after 48 hrs by MTT assay; assay type: cell-based; conditions: L02, 48 h
# HepG2 [4] = test: Anticancer activity against human HepG2 cells assessed as inhibition of cell proliferation measured after 48 hrs by MTT assay; assay type: functional, cell-based; conditions: HepG2, 48 h
# A549 = test: Anticancer activity against human A549 cells assessed as inhibition of cell proliferation measured after 48 hrs by MTT assay; assay type: functional, cell-based; conditions: A549, 48 h
# HeLa = test: Anticancer activity against human HeLa cells assessed as inhibition of cell proliferation measured after 48 hrs by MTT assay; assay type: functional, cell-based
# [5] = Cytotoxicity against human H8 cells assessed as inhibition of cell proliferation measured after 48 hrs by MTT assay; assay type: cell-based
# [6] = target: DNA topoisomerase 2-alpha (Homo sapiens) (UniProt P11388); test: Inhibition of human topoisomerase-2alpha mediated decatenation using kinetoplast DNA as substrate after 30 mins in presence of ATP by ethidium bromide staining-based UV imaging analysis
# [7] = target: DNA topoisomerase 2-alpha (Homo sapiens) (UniProt P11388); test: Inhibition of human topoisomerase-2alpha mediated decatenation at 50 uM using kinetoplast DNA as substrate after 30 mins in presence of ATP by ethidium bromide staining-based UV imaging analysis relative to control
# HepG2 [8] = test: Cell cycle arrest in human HepG2 cells assessed as accumulation at G2/M phase at 5 uM after 24 hrs by propidium staining based flow cytometry analysis; assay type: functional
# HepG2 [9] = test: Cell cycle arrest in human HepG2 cells assessed as accumulation at G2/M phase at 15 uM after 36 hrs by propidium staining based flow cytometry analysis relative to control; assay type: functional
# L02 [10] = test: Cell cycle arrest in human HL7702 cells assessed as accumulation at G2/M phase at 5 uM after 30 hrs by propidium staining based flow cytometry analysis relative to control; conditions: l02, 30 h
# HepG2 [11] = test: Induction of apoptosis in human HepG2 cells assessed as apoptotic cells at 5 to 15 uM measured after 36 hrs by Annexin-V/propidium iodide staining based flow cytometry analysis relative to control; assay type: functional
# HepG2 [12] = test: Induction of apoptosis in human HepG2 cells assessed as apoptotic cells at 10 uM measured after 42 hrs by Annexin-V/propidium iodide staining based flow cytometry analysis relative to control; assay type: functional
# L02 [13] = test: Induction of apoptosis in human HL7702 cells assessed as apoptotic cells at 50 uM measured after 42 hrs by Annexin-V/propidium iodide staining based flow cytometry analysis relative to control; assay type: cell-based; conditions: l02, 42 h
# [14] = Acute toxicity in C57BL6 mouse assessed as effect on body weight at 100 mg/kg, ip administered for 20 days; assay type: organism-based; conditions: in vivo, 480 h
# [15] = Acute toxicity in ip dosed C57BL6 mouse assessed as mouse survival administered as single dose for 3 days and monitored for 20 days by Bliss method; assay type: organism-based; conditions: in vivo
# HepG2 [16] = test: Antitumor activity against human HepG2 xenografted in ip dosed BALB/c nude mouse administered for 20 days and measured after 20 days by electronic caliper method; assay type: functional; conditions: 480 h
# HepG2 [17] = test: Antitumor activity against human HepG2 xenografted in BALB/c nude mouse assessed as tumor volume at 30 mg/kg, ip administered for 20 days and measured after 20 days by electronic caliper method (reference value: 960.20 +/- 32.10 mm3); assay type: functional
# HepG2 [18] = test: Antitumor activity against human HepG2 xenografted in BALB/c nude mouse assessed as tumor growth inhibition at 30 mg/kg, ip administered for 20 days and measured after 20 days by electronic caliper method relative to control; assay type: functional; conditions: 480 h, read-out: TGI
# [19] = Therapeutic index, ratio of LD50 for acute toxicity in ip dosed C57BL6 mouse assessed as mouse survival administered as single dose for 3 days and monitored for 20 days by Bliss method to ED50 for antitumor activity against human HepG2 xenografted in ip dosed BALB/c nude mouse administered for 20 days and measured after 20 days by electronic caliper method; assay type: organism-based; conditions: in vivo, read-out: TI
# [20] = target: DNA topoisomerase 2-alpha (Homo sapiens) (UniProt P11388); test: Inhibition of human topoisomerase-2alpha mediated decatenation at 25 uM using kinetoplast DNA as substrate after 30 mins in presence of ATP by ethidium bromide staining-based UV imaging analysis
# DNA topoisomerase II [21] = target: T1, DNA topoisomerase II (Homo sapiens, UniProt P11388+Q02880); test: Poison activity at topoisomerase-2 in human HepG2 cell lysate assessed as topoisomerase-2 band depletion after 3 hrs by Western blot analysis; assay type: subcellular
# DNA topoisomerase II [22] = target: T1, DNA topoisomerase II; test: Poison activity at topoisomerase-2 in human HL7702 cell lysate assessed as reduction in topoisomerase-2 band depletion at 50 uM after 3 hrs by Western blot analysis; assay type: ADME, subcellular
# HepG2 [23] = test: Induction of DNA damage in human HepG2 cells assessed as increase in H2AX phosphorylation at 20 uM after 24 hrs by Alexa Fluor 488 staining based fluorescence assay; assay type: functional, cell-based
# L02 [24] = test: Genotoxicity in human HL7702 cells assessed as induction of DNA damage by measuring tail DNA at 50 uM after 24 hrs by alkaline comet assay (reference value: 3 +/- 1.1 %); assay type: toxicity, cell-based; conditions: l02, 24 h
# L02 [25] = test: Induction of DNA damage in human HL7702 cells assessed as effect on gamma-H2AX phosphorylation at 20 uM after 24 hrs by Alexa Fluor 488 staining based fluorescence assay; assay type: cell-based; conditions: l02, 24 h
# L02 [26] = test: Genotoxicity in human HL7702 cells assessed as induction of DNA damage at 50 uM after 24 hrs in combination of teniposide by alkaline comet assay; assay type: toxicity, cell-based; conditions: l02, 24 h
# L02 [27] = test: Cytotoxicity against human HL7702 cells assessed as inhibition of cell proliferation measured after 48 hrs by MTT assay relative to teniposide; assay type: cell-based; conditions: l02, 48 h
# MRC5 [28] = test: Cytotoxicity against human MRC5 cells assessed as inhibition of cell proliferation measured after 48 hrs by MTT assay relative to teniposide; assay type: cell-based; conditions: mrc5, 48 h
# HMEC [29] = test: Cytotoxicity against human HMEC cells assessed as inhibition of cell proliferation measured after 48 hrs by MTT assay relative to teniposide; assay type: cell-based
# Homo sapiens = species: Homo sapiens; test: Induction of PI3K/AKT phosphorylation in human HL7702 cells at 25 uM after 30 hrs by Western blot analysis; assay type: cell-based
# L02 [30] = test: Induction of apoptosis in human HL7702 cells assessed as increase in BAX level at 25 uM after 30 hrs by Western blot analysis; assay type: cell-based; conditions: l02, 30 h
# L02 [31] = test: Induction of apoptosis in human HL7702 cells assessed as increase in PARP cleavage at 25 uM after 30 hrs by Western blot analysis; assay type: cell-based; conditions: l02, 30 h
# Chain of DNA topoisomerase 2-alpha (Homo sapiens) (P11388 whole entry): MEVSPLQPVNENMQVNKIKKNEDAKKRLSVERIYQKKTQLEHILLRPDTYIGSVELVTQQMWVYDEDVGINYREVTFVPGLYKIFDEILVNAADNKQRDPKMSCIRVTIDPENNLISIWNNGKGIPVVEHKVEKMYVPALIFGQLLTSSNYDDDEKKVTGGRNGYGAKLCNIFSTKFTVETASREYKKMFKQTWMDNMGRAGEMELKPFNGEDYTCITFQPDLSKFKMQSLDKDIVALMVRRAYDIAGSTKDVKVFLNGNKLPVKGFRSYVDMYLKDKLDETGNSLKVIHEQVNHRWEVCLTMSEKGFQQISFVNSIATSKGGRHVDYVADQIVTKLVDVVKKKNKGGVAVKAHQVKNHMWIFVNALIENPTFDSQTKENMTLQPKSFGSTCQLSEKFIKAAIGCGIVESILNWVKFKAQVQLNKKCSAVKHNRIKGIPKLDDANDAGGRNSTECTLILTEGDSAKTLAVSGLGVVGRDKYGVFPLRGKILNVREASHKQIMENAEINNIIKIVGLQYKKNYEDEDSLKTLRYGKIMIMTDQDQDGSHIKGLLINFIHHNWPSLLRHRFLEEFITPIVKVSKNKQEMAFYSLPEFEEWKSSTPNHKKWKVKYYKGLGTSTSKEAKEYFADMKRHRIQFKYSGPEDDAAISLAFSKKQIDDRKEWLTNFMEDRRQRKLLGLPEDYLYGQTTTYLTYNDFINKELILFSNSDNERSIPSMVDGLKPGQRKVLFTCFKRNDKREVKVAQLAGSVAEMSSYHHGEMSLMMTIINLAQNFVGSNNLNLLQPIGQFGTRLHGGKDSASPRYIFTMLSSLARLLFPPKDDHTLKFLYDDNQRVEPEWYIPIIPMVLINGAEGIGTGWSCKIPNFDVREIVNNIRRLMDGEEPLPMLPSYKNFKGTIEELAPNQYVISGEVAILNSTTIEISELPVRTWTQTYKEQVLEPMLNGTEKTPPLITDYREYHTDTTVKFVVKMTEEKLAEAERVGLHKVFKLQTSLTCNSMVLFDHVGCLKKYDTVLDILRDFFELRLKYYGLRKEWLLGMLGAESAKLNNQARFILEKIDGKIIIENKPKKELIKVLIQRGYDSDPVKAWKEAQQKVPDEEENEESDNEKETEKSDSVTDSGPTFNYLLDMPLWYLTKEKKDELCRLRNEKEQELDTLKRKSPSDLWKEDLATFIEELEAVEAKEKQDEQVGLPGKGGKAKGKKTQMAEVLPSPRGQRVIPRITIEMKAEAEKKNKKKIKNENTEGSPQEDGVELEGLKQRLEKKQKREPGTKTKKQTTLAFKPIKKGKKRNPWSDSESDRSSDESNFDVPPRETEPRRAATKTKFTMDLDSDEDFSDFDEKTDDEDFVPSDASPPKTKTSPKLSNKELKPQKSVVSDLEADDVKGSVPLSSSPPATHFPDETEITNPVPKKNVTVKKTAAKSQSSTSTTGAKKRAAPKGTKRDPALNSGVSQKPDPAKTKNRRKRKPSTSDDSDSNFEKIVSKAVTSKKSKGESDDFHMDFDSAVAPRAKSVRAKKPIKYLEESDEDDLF
smiles,measurement,setting,value
COc1cc([C@@H]2c3cc4c(cc3[C@@H](O[C@@H]3O[C@@H]5CO[C@@H](c6cccs6)O[C@H]5[C@H](OC(=O)CSc5nc6cc(F)ccc6o5)[C@H]3OC(=O)CSc3nc5cc(F)ccc5o3)[C@H]3COC(=O)[C@H]23)OCO4)cc(OC)c1O,IC50,HMEC [1],23.4 µM
same,IC50,MCF7,30.5 µM
same,IC50,MRC5 [2],25.4 µM
same,IC50,L02 [3],20.4 µM
same,IC50,HepG2 [4],15.6 µM
same,IC50,A549,11.5 µM
same,IC50,HeLa,50.3 µM
same,IC50,[5],20.4 µM
COc1cc([C@@H]2c3cc4c(cc3[C@@H](O[C@@H]3O[C@@H]5CO[C@@H](c6cccs6)O[C@H]5[C@H](O)[C@H]3NC(=O)CSc3nc5cc(F)ccc5o3)[C@H]3COC(=O)[C@H]23)OCO4)cc(OC)c1O,IC50,HMEC [1],156 µM
same,IC50,MCF7,157 µM
same,IC50,MRC5 [2],133 µM
same,IC50,L02 [3],144 µM
same,IC50,HepG2 [4],121 µM
same,IC50,A549,122 µM
same,IC50,HeLa,158 µM
same,IC50,[5],147 µM
COc1cc([C@@H]2c3cc4c(cc3[C@@H](O[C@@H]3O[C@@H]5CO[C@@H](c6cccs6)O[C@H]5[C@H](OC(=O)CSc5nc6cc(F)ccc6s5)[C@H]3OC(=O)CSc3nc5cc(F)ccc5s3)[C@H]3COC(=O)[C@H]23)OCO4)cc(OC)c1O,IC50,HMEC [1],24.6 µM
same,IC50,MCF7,151 µM
same,IC50,MRC5 [2],25.6 µM
same,IC50,L02 [3],22.1 µM
same,IC50,HepG2 [4],38.4 µM
same,IC50,A549,118 µM
same,IC50,HeLa,172 µM
same,IC50,[5],20.3 µM
COc1cc([C@@H]2c3cc4c(cc3[C@@H](O[C@@H]3O[C@@H]5CO[C@@H](c6cccs6)O[C@H]5[C@H](O)[C@H]3OC(=O)CSc3nc5cc(F)ccc5s3)[C@H]3COC(=O)[C@H]23)OCO4)cc(OC)c1O,IC50,HMEC [1],13.5 µM
same,IC50,MCF7,3.9 µM
same,IC50,MRC5 [2],12.4 µM
same,IC50,L02 [3],18.5 µM
same,IC50,HepG2 [4],2 µM
same,IC50,A549,1.1 µM
same,IC50,HeLa,1.5 µM
same,IC50,[5],22.5 µM
COc1cc([C@@H]2c3cc4c(cc3[C@@H](O[C@@H]3O[C@@H]5CO[C@@H](c6cccs6)O[C@H]5[C@H](OC(=O)CSc5nc6cc(F)ccc6s5)[C@H]3O)[C@H]3COC(=O)[C@H]23)OCO4)cc(OC)c1O,IC50,HMEC [1],14.3 µM
same,IC50,MCF7,5.6 µM
same,IC50,MRC5 [2],14.3 µM
same,IC50,L02 [3],16.4 µM
same,IC50,HepG2 [4],2.7 µM
same,IC50,A549,3.5 µM
same,IC50,HeLa,2.5 µM
same,IC50,[5],17.4 µM
COc1cc([C@@H]2c3cc4c(cc3[C@@H](O[C@@H]3O[C@@H]5CO[C@@H](c6cccs6)O[C@H]5[C@H](OC(=O)CSc5nc6cc(F)ccc6o5)[C@H]3NC(=O)CSc3nc5cc(F)ccc5o3)[C@H]3COC(=O)[C@H]23)OCO4)cc(OC)c1O,IC50,HMEC [1],125 µM
same,IC50,MCF7,12.3 µM
same,IC50,MRC5 [2],124 µM
same,IC50,L02 [3],123 µM
same,inhibition,[6],Dose-dependent effect
same,inhibition,[7],100%
same,IC50,HepG2 [4],11.1 µM
same,IC50,A549,14.9 µM
same,IC50,HeLa,155 µM
same,IC50,[5],123 µM
same,Activity,HepG2 [8],inactive
same,Activity,HepG2 [9],76%
same,Activity,L02 [10],40%
same,Activity,HepG2 [11],30 - 55%
same,Activity,HepG2 [12],55%
same,Activity,L02 [13],30%
same,Activity,[14],Non-Toxic
same,LD50 at 480 h,[15],168 mg/kg
same,ED50,HepG2 [16],34.7 mg/kg
same,Activity,HepG2 [17],163.25 mm3
same,inhibition in vivo at 30 mg/kg,HepG2 [18],62%
same,selectivity ratio at 20 days,[19],4.82
same,inhibition,[20],Active
same,IC50,DNA topoisomerase II [21],124.2 µM
same,Activity,DNA topoisomerase II [22],Not Active
same,Activity,HepG2 [23],Active
same,Activity,L02 [24],8.4%
same,Activity,L02 [25],Toxic
same,Activity,L02 [26],Toxic
same,fold change (FC),L02 [27],10
same,fold change (FC),MRC5 [28],10
same,fold change (FC),HMEC [29],10
same,Activity,Homo sapiens,Active
same,Activity,L02 [30],Non-Toxic
same,Activity,L02 [31],Non-Toxic
COc1cc([C@@H]2c3cc4c(cc3[C@@H](O[C@@H]3O[C@@H]5CO[C@@H](c6cccs6)O[C@H]5[C@H](O)[C@H]3NC(=O)CSc3nc5cc(F)ccc5s3)[C@H]3COC(=O)[C@H]23)OCO4)cc(OC)c1O,IC50,HMEC [1],160 µM
same,IC50,MCF7,142 µM
same,IC50,MRC5 [2],123 µM
same,IC50,L02 [3],156 µM
same,IC50,HepG2 [4],120 µM
same,IC50,A549,122 µM
same,IC50,HeLa,134 µM
same,IC50,[5],140 µM
COc1cc([C@@H]2c3cc4c(cc3[C@@H](O[C@@H]3O[C@@H]5CO[C@@H](c6cccs6)O[C@H]5[C@H](O)[C@H]3OC(=O)CSc3nc5cc(F)ccc5o3)[C@H]3COC(=O)[C@H]23)OCO4)cc(OC)c1O,IC50,HMEC [1],14.3 µM
same,IC50,MCF7,4 µM
same,IC50,MRC5 [2],15.8 µM
same,IC50,L02 [3],17.3 µM
same,IC50,HepG2 [4],1.7 µM
same,IC50,A549,2.7 µM
same,IC50,HeLa,1 µM
same,IC50,[5],21.3 µM
COc1cc([C@@H]2c3cc4c(cc3[C@@H](O[C@@H]3O[C@@H]5CO[C@@H](c6cccs6)O[C@H]5[C@H](OC(=O)CSc5nc6cc(F)ccc6o5)[C@H]3O)[C@H]3COC(=O)[C@H]23)OCO4)cc(OC)c1O,IC50,HMEC [1],14.2 µM
same,IC50,MCF7,4.6 µM
same,IC50,MRC5 [2],14.9 µM
same,IC50,L02 [3],16.1 µM
same,IC50,HepG2 [4],2.1 µM
same,IC50,A549,4.8 µM
same,IC50,HeLa,2 µM
same,IC50,[5],15.9 µM
